Consider eight molecules from US20250154138A1, “Small Molecule IL-17A Modulators” (BeiGene, Ltd., priority 2022, published 2025).

Where two headings read alike, the source gives them in different places. Some results are limits rather than exact numbers.

Assay [1] has as its target human IL-17A / human IL-17RA (Homo sapiens (Human), UniProt Q16552). In words: Human IL-17A biochemical assay (HTRF, blocking of IL-17A binding to IL-17RA). The note with it: 0.4 nM IL-17A, 0.3 nM IL-17RA, max compound concentration 10 uM. In a few lines:
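Recombinant human IL-17A (0.4 nM) was pre-incubated with compound (top 10 uM, 2.7-fold, 10 points) for 3 h at room temperature in 20 mM HEPES pH 7.5, 50 mM NaCl, 0.1% BSA, 0.2 mM DTT, 0.005% Tween 20. IL-17RA (0.3 nM) was then added for 1 h, followed by anti-6His Tb and anti-human IgG-XL665 detection for 1 h; IC50 from four-parameter fit.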
For orientation: TR-FRET usually uses a lanthanide donor and a delayed reading to cut background.

In assay [2] the test system is IL-17-induced GROα secretion from HT-29 cells. In words: GROα release assay in human colorectal adenocarcinoma epithelial cell (HT-29, ELISA). It counts as cell-based. The note with it: 10 ng/mL IL-17A, highest concentration 10 μM, read-out: Cellular assay HT29 cell/CXCL1 IC50. A digest of the protocol:
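HT-29 cells were exposed 48 h at 37°C to IL-17A (final 10 ng/mL) preincubated 15 min with compound (4-fold dilutions, top 10 μM). Secreted GROα was quantified by ELISA against a standard curve, and IC50 obtained by four-parameter fitting.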
A general note: In an ELISA, binding on a coated surface is turned into a signal by an enzyme label.

human IL-17A / human IL-17RA, sequence (Q16552 24-155): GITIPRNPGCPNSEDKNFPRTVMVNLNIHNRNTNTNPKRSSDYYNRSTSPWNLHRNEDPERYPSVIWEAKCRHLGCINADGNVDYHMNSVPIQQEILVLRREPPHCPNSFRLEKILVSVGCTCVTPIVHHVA

As to `CNC(=O)C1(N2CC3(CC3)CNC2=O)CCc2cc(NC(=O)[C@@H](NC(=O)c3ccnn3C)C3CCCCC3)sc2C1` (stereo partly drawn) [Example 145, N-((1S)-1-cyclohexyl-2-((6-(methylcarbamoyl)-6-(6-oxo-5,7-diazaspiro[2.5]octan-5-yl)-4,5,6,7-tetrahydrobenzo[b]thiophen-2-yl)amino)-2-oxoethyl)-1-methyl-1H-pyrazole-5-carboxamide], the IC50 in assay [1] turned out to be 0.139 µM; in assay [2] (Homo sapiens, HT-29, 48 h), 0.454 µM.

For the molecule `CC1CN(Cc2cc3cc(NC(=O)[C@@H](NC(=O)c4ccnn4C)C4CCCCC4)ccc3[nH]2)C(=O)N1` (stereo partly drawn) [Example 12, N-((1S)-1-cyclohexyl-2-((2-((4-methyl-2-oxoimidazolidin-1-yl)methyl)-1H-indol-5-yl)amino)-2-oxoethyl)-1-methyl-1H-pyrazole-5-carboxamide], the IC50 is 13 µM in assay [1] and above 10 µM in assay [2] (Homo sapiens, HT-29, 48 h).

Take `Cc1nonc1C(=O)N[C@H](C(=O)Nc1ccc2c(c1)CC(N1CC(C(F)(F)F)NC1=O)(C(C)(C)O)C2)C(C1CC1)C1CC1` (stereo partly drawn) [Example 279, N-((2S)-1,1-dicyclopropyl-3-((2-(2-hydroxypropan-2-yl)-2-(2-oxo-4-(trifluoromethyl)imidazolidin-1-yl)-2,3-dihydro-1H-inden-5-yl)amino)-3-oxopropan-2-yl)-4-methyl-1,2,5-oxadiazole-3-carboxamide]: the IC50 turned out to be 0.0648 µM in assay [1] and 0.0691 µM in assay [2] (Homo sapiens, HT-29, 48 h).

Take `Cc1nonc1C(=O)N[C@H](C(=O)Nc1ccc2c(c1)CC(C(=O)O)(N1CC3(CC3)CNC1=O)C2)C1CCC(F)(F)CC1` (stereo partly drawn) [Example 188, 5-((S)-2-(4,4-difluorocyclohexyl)-2-(4-methyl-1,2,5-oxadiazole-3-carboxamido)acetamido)-2-(6-oxo-5,7-diazaspiro[2.5]octan-5-yl)-2,3-dihydro-1H-indene-2-carboxylic acid]: the IC50 was found to be 0.0449 µM in assay [1] and 0.45 µM in assay [2] (Homo sapiens, HT-29, 48 h).

For the molecule `CC[C@@H]1CN(C2(C(=O)NC)Cc3cc4nc([C@@H](NC(=O)c5nonc5C)C5CCCCC5)[nH]c4cc3C2)C(=O)N1` [Example 32, N-((1S)-cyclohexyl(6-((R)-4-ethyl-2-oxoimidazolidin-1-yl)-6-(methylcarbamoyl)-1,5,6,7-tetrahydroindeno[5,6-d]imidazol-2-yl)methyl)-4-methyl-1,2,5-oxadiazole-3-carboxamide], the IC50 in assay [1] came out at 0.062 µM; in assay [2] (Homo sapiens, HT-29, 48 h), 0.135 µM.

As to `Cc1nonc1C(=O)N[C@H](C(=O)Nc1ccc2c(c1)CC(C1C[C@@H](C(C)C)NC1=O)C2)C(C1CC1)C1CC1` (stereo partly drawn) [Example 211, N-((2S)-1,1-dicyclopropyl-3-((2-((5S)-5-isopropyl-2-oxopyrrolidin-3-yl)-2,3-dihydro-1H-inden-5-yl)amino)-3-oxopropan-2-yl)-4-methyl-1,2,5-oxadiazole-3-carboxamide], the IC50 was 0.465 µM in assay [1] and 3.69 µM in assay [2] (48 hours).

For the molecule `COc1ccc(CNC(=O)C2(N3C[C@@H](C(C)C)NC3=O)Cc3ccc(NC(=O)[C@@H](NC(=O)c4ccnn4C)C4CCCCC4)cc3C2)cc1` (stereo partly drawn) [Example 150, N-((1S)-1-cyclohexyl-2-((2-((R)-4-isopropyl-2-oxoimidazolidin-1-yl)-2-((4-methoxybenzyl)carbamoyl)-2,3-dihydro-1H-inden-5-yl)amino)-2-oxoethyl)-1-methyl-1H-pyrazole-5-carboxamide], the IC50 in assay [1] came out at 0.02 µM; in assay [2] (Homo sapiens, HT-29, 48 h), 0.0465 µM.

Turning to `Cc1nonc1C(=O)N[C@H](C(=O)Nc1ccc2c(c1)CC(C(=O)Nc1cnccc1Cl)(N1C[C@@H](C(C)C)NC1=O)C2)C(C1CC1)C1CC1` (stereo partly drawn) [Example 274, N-((2S)-1-((2-((4-chloropyridin-3-yl)carbamoyl)-2-((R)-4-isopropyl-2-oxoimidazolidin-1-yl)-2,3-dihydro-1H-inden-5-yl)amino)-3,3-dicyclopropyl-1-oxopropan-2-yl)-4-methyl-1,2,5-oxadiazole-3-carboxamide], the IC50 in assay [1] came to 0.0424 µM; in assay [2] (Homo sapiens, HT-29, 48 h) it was 0.0676 µM.
